Values of other authors as cited in US5122371A (priority 1991, dated 1992).

Columns and labels:
[1] = test system: Na+ K+-ATPase enzyme; details: known property of cardiac glycosides
[2] = in vivo

Molecule | Effect on Na+ K+-ATPase enzyme activity [1] | half-life [2] [h]
C[C@H]1O[C@@H](O[C@H]2[C@@H](O)C[C@H](O[C@H]3[C@@H](O)C[C@H](O[C@H]4CC[C@@]5(C)[C@H](CC[C@@H]6[C@@H]5C[C@@H](O)[C@]5(C)[C@@H](C7=CC(=O)OC7)CC[C@]65O)C4)O[C@@H]3C)O[C@@H]2C)C[C@H](O)[C@@H]1O [digoxin] | inhibit | –
C[C@@H]1O[C@@H](O[C@H]2C[C@@H](O)[C@]3(CO)[C@H]4[C@H](O)C[C@]5(C)[C@@H](C6=CC(=O)OC6)CC[C@]5(O)[C@@H]4CC[C@]3(O)C2)[C@H](O)[C@H](O)[C@H]1O [ouabain] | inhibit | 21
digitalis | inhibit | –
